According to PubChem BioAssay (NCI):
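Interpolation was linear, between the two tested concentrations surrounding the appropriate level; five concentrations were tested over 48 hours in 96-well plates. TGI marks complete inhibition of growth.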

What was measured:
Test in all cases: inhibition of tumour cell growth, NCI panel, 48 h
PC-3 prostate = tested on: PC-3 prostate
MDA-MB-231 breast = tested on: MDA-MB-231 breast
TK-10 renal = tested on: TK-10 renal
SK-MEL-2 melanoma = tested on: SK-MEL-2 melanoma
SK-MEL-5 melanoma = tested on: SK-MEL-5 melanoma
NCI-H522 lung = tested on: NCI-H522 lung
DU-145 prostate = tested on: DU-145 prostate
ACHN renal = tested on: ACHN renal
MDA-MB-435 = tested on: MDA-MB-435
IGROV1 ovarian = tested on: IGROV1 ovarian
A498 renal = tested on: A498 renal
OVCAR-3 ovarian = tested on: OVCAR-3 ovarian
HS 578T breast = tested on: HS 578T breast
HCT-116 colon = tested on: HCT-116 colon
T-47D breast = tested on: T-47D breast
DMS 273 small cell lung = tested on: DMS 273 small cell lung
SNB-78 CNS = tested on: SNB-78 CNS
DLD-1 colon = tested on: DLD-1 colon
HOP-18 NSCLC = tested on: HOP-18 NSCLC
DMS 114 small cell lung = tested on: DMS 114 small cell lung

| Structure (SMILES) | TGI (PC-3 prostate) | TGI (MDA-MB-231 breast) | TGI (TK-10 renal) | TGI (SK-MEL-2 melanoma) | TGI (SK-MEL-5 melanoma) | TGI (NCI-H522 lung) | TGI (DU-145 prostate) | TGI (ACHN renal) | TGI (MDA-MB-435) | TGI (IGROV1 ovarian) | TGI (A498 renal) | TGI (OVCAR-3 ovarian) | TGI (HS 578T breast) | TGI (HCT-116 colon) | TGI (T-47D breast) | TGI (DMS 273 small cell lung) | TGI (SNB-78 CNS) | TGI (DLD-1 colon) | TGI (HOP-18 NSCLC) | TGI (DMS 114 small cell lung) |
| --- | --- | --- | --- | --- | --- | --- | --- | --- | --- | --- | --- | --- | --- | --- | --- | --- | --- | --- | --- | --- |
| C=CCN1C(=O)/C(=C/c2ccccc2)N=C1SC1OC(COC(=O)c2ccccc2)C(OC(=O)c2ccccc2)C1OC(=O)c1ccccc1 (configuration not stated) | > 100 µM | > 100 µM | > 100 µM | > 100 µM | > 100 µM | 41.5 µM | > 100 µM | > 100 µM | > 100 µM | > 100 µM | > 100 µM | > 100 µM |  |  |  |  |  |  |  |  |
| CCN1c2ccccc2-n2c(C)nnc2-c2c1n[nH]c2-c1ccccc1 | 96.5 µM | 71.1 µM | > 100 µM | 45.6 µM | 35.3 µM | 5.98 µM | > 100 µM | > 100 µM | 82.9 µM | > 100 µM |  | > 100 µM | > 100 µM | > 100 µM | 74.7 µM |  |  |  |  |  |
| CC(C)OP(=O)(OC(C)C)c1c(Nc2ccccc2)n[nH]c1N | > 100 µM | > 100 µM | > 100 µM | > 100 µM | > 100 µM | > 100 µM | > 100 µM | > 100 µM | > 100 µM | > 100 µM | > 100 µM | > 100 µM | > 100 µM |  | > 100 µM |  |  |  |  |  |
| C[C@]12CC[C@@H]3c4ccc(O)cc4CC[C@H]3[C@@H]1C/C(=C\c1ccncc1)C2=O | > 100 µM | > 100 µM | > 100 µM | 48.7 µM | 27.9 µM |  | 91.6 µM | > 100 µM | 74.9 µM | 68.3 µM | 91.4 µM | 50.5 µM | 62.7 µM |  | > 100 µM |  |  |  |  |  |
| C=C(C(=O)C(=O)Oc1ccc(Cl)cc1)C(=O)c1ccc(C)cc1 |  |  | > 100 µM | > 100 µM | > 100 µM | 40 µM |  | > 100 µM |  | > 100 µM | > 100 µM | > 100 µM |  | 30.3 µM |  | > 100 µM | > 100 µM | 99.3 µM | > 100 µM | > 100 µM |
| C#CCCCCC#Cc1ccccc1C(=O)OC |  |  | > 100 µM | > 100 µM | > 100 µM |  |  | > 100 µM |  | > 100 µM | > 100 µM | > 100 µM |  | 23 µM |  | > 100 µM |  | > 100 µM | > 100 µM | 60 µM |
| COCCOCOc1ccc(OCc2ccccc2)cc1 |  |  |  | > 100 µM | > 100 µM |  |  |  |  | > 100 µM | 99.5 µM | > 100 µM |  | > 100 µM |  | > 100 µM | > 100 µM | > 100 µM | > 100 µM | > 100 µM |
| Oc1ccc(/C=C/c2cc(O)cc(O)c2)cc1 | > 100 µM | > 100 µM | > 100 µM | > 100 µM |  |  | 85.3 µM | > 100 µM | > 100 µM |  | > 100 µM | > 100 µM |  |  | > 100 µM |  |  |  |  |  |
| C/C(CCOC1CCCCO1)=C(\C)[Si](C)(C)C (configuration not stated) |  |  | > 100 µM | > 100 µM | > 100 µM | > 100 µM |  | > 100 µM |  | > 100 µM | > 100 µM | > 100 µM |  | > 100 µM |  |  | > 100 µM | > 100 µM |  | > 100 µM |
